Data reported in BindingDB's records for doi:10.1016/0960-894X(96)00221-1 (1996).

Assay: Compound was evaluated for inhibition of tyrosinase enzyme.

Row | Structure (SMILES) | IC50
1 | CC[C@H](C)[C@H](NC(=O)OCc1cc(=O)c(O)co1)C(=O)O | 15.3 µM
2 | CC[C@H](C)[C@H](NC(=O)OCc1cc(=O)c(O)co1)C(=O)OCc1cc(=O)c(O)co1 | 0.7 µM
3 | CC(C)[C@H](NC(=O)OCc1cc(=O)c(O)co1)C(=O)OCc1cc(=O)c(O)co1 [(S)-2-(5-Hydroxy-4-oxo-4H-pyran-2-ylmethoxycarbonylamino)-3-methyl-butyric acid 5-hydroxy-4-oxo-4H-pyran-2-ylmethyl ester] | 2.39 µM
4 | CC(C)[C@H](NC(=O)OCc1cc(=O)c(O)co1)C(=O)O [(S)-2-(5-Hydroxy-4-oxo-4H-pyran-2-ylmethoxycarbonylamino)-3-methyl-butyric acid] | 16.7 µM
5 | O=C(N[C@@H](Cc1ccccc1)C(=O)OCc1cc(=O)c(O)co1)OCc1cc(=O)c(O)co1 [(S)-2-(5-Hydroxy-4-oxo-4H-pyran-2-ylmethoxycarbonylamino)-3-phenyl-propionic acid 5-hydroxy-4-oxo-4H-pyran-2-ylmethyl ester] | 0.06 µM
6 | O=C(N[C@@H](Cc1ccccc1)C(=O)O)OCc1cc(=O)c(O)co1 [(S)-2-(5-Hydroxy-4-oxo-4H-pyran-2-ylmethoxycarbonylamino)-3-phenyl-propionic acid] | 8 µM
7 | CC(C)C[C@H](NC(=O)OCc1cc(=O)c(O)co1)C(=O)OCc1cc(=O)c(O)co1 [(S)-2-(5-Hydroxy-4-oxo-4H-pyran-2-ylmethoxycarbonylamino)-4-methyl-pentanoic acid 5-hydroxy-4-oxo-4H-pyran-2-ylmethyl ester] | 2 µM
8 | CC(C)C[C@H](NC(=O)OCc1cc(=O)c(O)co1)C(=O)O [(S)-2-(5-Hydroxy-4-oxo-4H-pyran-2-ylmethoxycarbonylamino)-4-methyl-pentanoic acid] | 14.5 µM
9 | C[C@H](NC(=O)OCc1cc(=O)c(O)co1)C(=O)OCc1cc(=O)c(O)co1 [(S)-2-(5-Hydroxy-4-oxo-4H-pyran-2-ylmethoxycarbonylamino)-propionic acid 5-hydroxy-4-oxo-4H-pyran-2-ylmethyl ester] | 3.03 µM
10 | C[C@H](NC(=O)OCc1cc(=O)c(O)co1)C(=O)O [(S)-2-(5-Hydroxy-4-oxo-4H-pyran-2-ylmethoxycarbonylamino)-propionic acid] | 23.2 µM
